Data taken from ChEMBL document CHEMBL1201862, “PubChem BioAssay data set” (2004).
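In this assay, cells in 96-well plates receive the compound at five concentrations for 48 hours. Endpoints are linearly interpolated between the surrounding concentrations. At the GI50, growth is halved.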 Calls of active or inactive are those of the source. Cut-off read from the data, not from the text of the source: active = GI50 up to about 1.1 µM and inactive = higher.

Columns and labels:
Test in all cases: NCI anticancer screen, dose series, 48 h
ACHN = tested on: ACHN
BT-549 = tested on: BT-549
COLO 205 = tested on: COLO 205
HOP-92 = tested on: HOP-92
LOX IMVI = tested on: LOX IMVI
M14 = tested on: M14
MOLT-4 = tested on: MOLT-4
NCI-H23 = tested on: NCI-H23
NCI-H522 = tested on: NCI-H522
NCI/ADR-RES = tested on: NCI/ADR-RES
OVCAR-4 = tested on: OVCAR-4
OVCAR-8 = tested on: OVCAR-8
RPMI-8226 = tested on: RPMI-8226
RXF 393 = tested on: RXF 393
SK-MEL-2 = tested on: SK-MEL-2
SW-620 = tested on: SW-620
T47D = tested on: T47D
UACC-257 = tested on: UACC-257
UACC-62 = tested on: UACC-62
HL-60 = tested on: HL-60

Measured: GI50

S=C(Nc1ccc(Cl)cc1)SC1CCCCC1
inactive: ACHN 17.5 µM | BT-549 29 µM | COLO 205 30.5 µM | HOP-92 23.5 µM | LOX IMVI 16.4 µM | M14 19.7 µM | MOLT-4 29.2 µM | NCI-H23 20.5 µM | NCI-H522 19.7 µM | NCI/ADR-RES 37.1 µM | OVCAR-4 33.9 µM | OVCAR-8 31.5 µM | RPMI-8226 40.1 µM | RXF 393 25.1 µM | SK-MEL-2 17.6 µM | SW-620 32.9 µM | T47D 22.5 µM | UACC-257 25.9 µM | UACC-62 14 µM

CC1CCc2sc3nc(S)n(-c4ccccc4)c(=O)c3c2C1 (configuration not stated)
inactive: ACHN 62.5 µM | BT-549 > 100 µM | COLO 205 > 100 µM | HOP-92 37.7 µM | LOX IMVI 47.2 µM | M14 > 100 µM | MOLT-4 41.1 µM | NCI-H23 92.7 µM | NCI-H522 > 100 µM | NCI/ADR-RES > 100 µM | OVCAR-4 39.7 µM | OVCAR-8 > 100 µM | RPMI-8226 53 µM | RXF 393 35.8 µM | SK-MEL-2 27.7 µM | SW-620 > 100 µM | T47D 33.4 µM | UACC-257 63.8 µM | UACC-62 31.3 µM

CC(C)OC1OC(CO)C(O)CC1n1cc(F)c(=O)[nH]c1=O (configuration not stated)
inactive: ACHN > 100 µM | BT-549 > 100 µM | COLO 205 > 100 µM | HOP-92 > 100 µM | LOX IMVI 94 µM | M14 > 100 µM | NCI-H23 > 100 µM | NCI-H522 16.2 µM | NCI/ADR-RES > 100 µM | OVCAR-4 > 100 µM | OVCAR-8 > 100 µM | RPMI-8226 39.4 µM | RXF 393 47.5 µM | SK-MEL-2 > 100 µM | SW-620 30.9 µM | T47D 48.4 µM | UACC-257 > 100 µM | UACC-62 > 100 µM

Nc1nc(N)c(NC(=O)CCCO)c(=O)[nH]1
inactive: ACHN > 100 µM | BT-549 > 100 µM | COLO 205 > 100 µM | HOP-92 > 100 µM | LOX IMVI > 100 µM | M14 > 100 µM | MOLT-4 > 100 µM | NCI-H23 > 100 µM | NCI-H522 67.1 µM | NCI/ADR-RES > 100 µM | OVCAR-4 > 100 µM | OVCAR-8 > 100 µM | RPMI-8226 > 100 µM | RXF 393 > 100 µM | SK-MEL-2 > 100 µM | SW-620 > 100 µM | T47D > 100 µM | UACC-257 > 100 µM | UACC-62 > 100 µM

CCOC(=O)c1c(NS(=O)(=O)c2ccc(Br)cc2)sc2c1CCCC2
inactive: ACHN 3.93 µM | BT-549 7.59 µM | COLO 205 13 µM | HL-60 6.18 µM | LOX IMVI 13.6 µM | M14 4.8 µM | MOLT-4 4.91 µM | NCI-H23 6.34 µM | NCI-H522 2.03 µM | NCI/ADR-RES 1.57 µM | OVCAR-4 30.1 µM | OVCAR-8 5.89 µM | RPMI-8226 4.6 µM | RXF 393 2.67 µM | SK-MEL-2 5.85 µM | SW-620 16.5 µM | T47D 6.61 µM | UACC-257 9.23 µM | UACC-62 6.46 µM

CC(C)(C(=O)NN)c1ccccc1
inactive: ACHN > 100 µM | BT-549 > 100 µM | COLO 205 > 100 µM | HL-60 > 100 µM | HOP-92 > 100 µM | LOX IMVI 7.91 µM | M14 > 100 µM | MOLT-4 > 100 µM | NCI-H23 > 100 µM | NCI-H522 56.2 µM | NCI/ADR-RES > 100 µM | OVCAR-8 > 100 µM | RPMI-8226 84.1 µM | SK-MEL-2 21.6 µM | SW-620 33 µM | T47D > 100 µM | UACC-257 > 100 µM | UACC-62 19.3 µM

OC1(c2ccccc2)CC2CCC(C1)N2CCCC1(c2ccc(F)cc2)OCCO1 (configuration not stated)
inactive: ACHN > 100 µM | BT-549 > 100 µM | COLO 205 69.8 µM | HL-60 6.78 µM | LOX IMVI > 100 µM | M14 21 µM | MOLT-4 47.2 µM | NCI-H23 > 100 µM | NCI-H522 > 100 µM | NCI/ADR-RES 15.6 µM | OVCAR-4 > 100 µM | OVCAR-8 16.3 µM | RPMI-8226 61.4 µM | RXF 393 59.7 µM | SK-MEL-2 > 100 µM | SW-620 > 100 µM | T47D > 100 µM | UACC-257 28.1 µM | UACC-62 > 100 µM

Nc1ncnc2c1cnn2Cc1cn(COCC(O)CO)nn1 (configuration not stated)
inactive: ACHN > 100 µM | BT-549 > 100 µM | COLO 205 > 100 µM | HL-60 > 100 µM | HOP-92 > 100 µM | LOX IMVI > 100 µM | M14 > 100 µM | NCI-H23 > 100 µM | NCI-H522 16.1 µM | NCI/ADR-RES > 100 µM | OVCAR-4 > 100 µM | OVCAR-8 > 100 µM | SK-MEL-2 > 100 µM | SW-620 > 100 µM | T47D > 100 µM | UACC-257 > 100 µM | UACC-62 > 100 µM

COc1ccc2c(c1)OCC1Cc3cc4c(cc3OC21)OCO4 (configuration not stated)
inactive: ACHN 97.3 µM | BT-549 61 µM | COLO 205 35.9 µM | HOP-92 > 100 µM | LOX IMVI 19.4 µM | M14 32.1 µM | MOLT-4 36.8 µM | NCI-H23 > 100 µM | NCI-H522 49.2 µM | NCI/ADR-RES 26.2 µM | OVCAR-8 45 µM | RPMI-8226 71.4 µM | SK-MEL-2 30 µM | SW-620 35.7 µM | T47D 32.1 µM | UACC-257 30.2 µM | UACC-62 31.3 µM

Cc1cc(-c2c(Br)cc(C(=O)O)n2C)on1
inactive: ACHN > 100 µM | BT-549 > 100 µM | COLO 205 > 100 µM | HL-60 > 100 µM | HOP-92 > 100 µM | LOX IMVI > 100 µM | M14 > 100 µM | MOLT-4 > 100 µM | NCI-H23 > 100 µM | NCI-H522 > 100 µM | NCI/ADR-RES > 100 µM | OVCAR-4 > 100 µM | OVCAR-8 > 100 µM | RPMI-8226 > 100 µM | SK-MEL-2 > 100 µM | SW-620 > 100 µM | T47D > 100 µM | UACC-257 > 100 µM | UACC-62 > 100 µM

Cc1cc(OCc2nnc3n2N=C(c2cc(F)c(Cl)cc2Cl)/C(=C/c2ccc(-c4ccc(Cl)cc4)o2)S3)ccc1Cl
inactive: ACHN > 50 µM | BT-549 > 50 µM | COLO 205 10.4 µM | HL-60 > 50 µM | LOX IMVI 31.6 µM | M14 > 50 µM | MOLT-4 > 50 µM | NCI-H23 26.7 µM | NCI-H522 28.8 µM | NCI/ADR-RES 12.1 µM | OVCAR-8 > 50 µM | RPMI-8226 14.1 µM | RXF 393 > 50 µM | SK-MEL-2 > 50 µM | SW-620 32.9 µM | T47D 7.93 µM | UACC-257 > 50 µM | UACC-62 18.2 µM
